Results from paper PMC5375154, “Atypical protein disulfide isomerases (PDI): Comparison of the molecular and catalytic properties of poplar PDI-A and PDI-M with PDI-L1A” (PLoS ONE, 2017).

Assays:
PDI-M (PtPDI-M) = target: T1, PDI-M (PtPDI-M) (Populus trichocarpa, UniProt B9IAL5); test: NADPH/AtNTRB-coupled DTNB reduction, absorbance at […] nm; assay type: biochemical; conditions: 200 μM NADPH, 2 μM AtNTRB, 100 μM DTNB, 0.2 μM PDI, pH 8.0, 25°C
T1 construct: gene POPTR_014G160000; pET-15b, His-tagged; E. coli BL21(DE3) pSBET; a°-a-b organisation
T1 sequence (B9IAL5 25-434): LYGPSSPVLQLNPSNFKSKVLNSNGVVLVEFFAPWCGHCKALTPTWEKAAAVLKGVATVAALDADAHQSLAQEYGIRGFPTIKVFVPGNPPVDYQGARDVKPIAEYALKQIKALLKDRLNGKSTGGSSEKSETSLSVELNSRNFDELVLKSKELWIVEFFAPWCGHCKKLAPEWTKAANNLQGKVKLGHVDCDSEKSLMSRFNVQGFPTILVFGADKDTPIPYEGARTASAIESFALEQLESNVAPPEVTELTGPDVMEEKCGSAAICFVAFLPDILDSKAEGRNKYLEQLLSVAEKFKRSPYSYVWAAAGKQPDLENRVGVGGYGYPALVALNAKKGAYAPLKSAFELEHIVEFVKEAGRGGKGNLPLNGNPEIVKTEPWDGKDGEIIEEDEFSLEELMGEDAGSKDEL

PDI-A (PtPDI-A) = target: T2, PDI-A (PtPDI-A) (Populus trichocarpa, UniProt B9HQP9); test: UV-visible absorption, iron and sulfide quantification, size-exclusion chromatography; assay type: binding; conditions: as isolated after E. coli expression, anaerobic purification; pH 8.0; cluster proposed to bridge a dimer; cluster type not definitively assigned
T2 construct: gene POPTR_009G004500; pET-15b, His-tagged; E. coli BL21(DE3) pSBET; purified anaerobically; ca 15 kDa; dimeric and probable octameric forms; WCKHC active site
T2 sequence (B9HQP9 27-147): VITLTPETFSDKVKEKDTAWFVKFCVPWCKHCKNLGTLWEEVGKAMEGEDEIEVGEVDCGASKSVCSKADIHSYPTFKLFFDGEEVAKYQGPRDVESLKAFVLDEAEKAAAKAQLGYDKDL

SMILES: O=C(O)c1cc(SSc2ccc([N+](=O)[O-])c(C(=O)O)c2)ccc1[N+](=O)[O-] [DTNB]
- DTNB reduction activity (PDI-M (PtPDI-M)): PDI-L1a was more efficient than PDI-M and PDI-A was inactive (Fig 2C)

SMILES: [S]1[Fe][S][Fe]1 [[Fe2S2] cluster]
- UV-visible absorption, iron and sulfide quantification, size-exclusion chromatog (PDI-A (PtPDI-A)): results could be consistent with PDI-A binding a [Fe2S2] cluster into a dimer
